Assay type in all cases: biochemical
For test [1], the target named is T1, porcine pancreatic lipase (Sus scrofa, UniProt P00591).
T1 construct: lipase from porcine pancreas; purchased Sigma-Aldrich L3126 (lipase); C3028 (colipase); host or cells: porcine pancreas (tissue-derived)
T1 sequence (P00591 1-450): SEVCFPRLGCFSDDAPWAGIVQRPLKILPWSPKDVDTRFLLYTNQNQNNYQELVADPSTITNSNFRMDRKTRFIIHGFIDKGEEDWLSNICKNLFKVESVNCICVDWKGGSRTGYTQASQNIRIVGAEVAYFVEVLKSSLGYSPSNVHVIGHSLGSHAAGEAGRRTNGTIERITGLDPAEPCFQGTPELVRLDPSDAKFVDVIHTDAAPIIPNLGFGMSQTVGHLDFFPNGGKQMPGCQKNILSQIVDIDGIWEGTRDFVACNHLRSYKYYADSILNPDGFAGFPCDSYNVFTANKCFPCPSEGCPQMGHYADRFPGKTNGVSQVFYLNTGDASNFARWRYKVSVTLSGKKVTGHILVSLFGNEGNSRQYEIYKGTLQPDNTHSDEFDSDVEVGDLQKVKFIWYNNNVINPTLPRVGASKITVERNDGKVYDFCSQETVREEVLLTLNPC
T1 sequence (P02703 23-112 partner): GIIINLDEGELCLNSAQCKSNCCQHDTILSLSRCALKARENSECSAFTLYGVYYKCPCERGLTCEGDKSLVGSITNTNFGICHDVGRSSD
Briefly: Simulated gastrointestinal digestion of artificial substrate mixture, lipase activity (4-methylumbelliferone marker, HPLC-DAD). Particulars: 1000 μg/mL; control = 100% of enzyme activity.
Description: To study the inhibitory potential of R. acicularis extracts on the digestive enzymes, we used the standardized static, simulated gastrointestinal digestion method of Minekus et al., based on physiologically relevant conditions of digestion [77]. In brief, the artificial substrate mixture, including ethylidene-p-nitrophenyl-α-D-maltoheptaoside (as a carbohydrate model), Nα-benzoyl-L-arginine-7-amino-4-methylcoumarin hydrochloride (as a protein model) and 4-methylumbelliferyl heptanoate (as a lipid model), was digested with extracts of R. acicularis leaves, flowers, roots and fruits (in doses of 100 μg/mL and 1000 μg/mL) by gastric and intestinal enzymatic and electrolyte mixtures (or juices). […] In a final step, concentrations of specific markers, such as p-nitrophenol, 7-amino-4-methylcoumarin and 4-methylumbelliferone, released from an artificial nutrient mixture, were analyzed by an HPLC-DAD assay. […]
For simulation, the known standardized static gastrointestinal digestion method of Minekus et al. [77] was used with no variation. […] The supernatant was analyzed using an HPLC-DAD assay (Section 3.7) to quantify the level of markers as p-nitrophenol, 7-amino-4-methylcoumarin and 4-methylumbelliferone formed from ethylidene-p-nitrophenyl-α-D-maltoheptaoside, Nα-benzoyl-L-arginine- 7-amino-4-methylcoumarin hydrochloride and 4-methylumbelliferyl heptanoate, respectively. […]

Test [2] concerns the target T2, α-amylase from the human pancreas (Homo sapiens, UniProt P04746).
T2 construct: α-amylase from human pancreas; purchased Lee Biosolutions, Inc. Cat. No. 120-15; host or cells: human pancreas (tissue-derived)
T2 sequence (P04746 16-511): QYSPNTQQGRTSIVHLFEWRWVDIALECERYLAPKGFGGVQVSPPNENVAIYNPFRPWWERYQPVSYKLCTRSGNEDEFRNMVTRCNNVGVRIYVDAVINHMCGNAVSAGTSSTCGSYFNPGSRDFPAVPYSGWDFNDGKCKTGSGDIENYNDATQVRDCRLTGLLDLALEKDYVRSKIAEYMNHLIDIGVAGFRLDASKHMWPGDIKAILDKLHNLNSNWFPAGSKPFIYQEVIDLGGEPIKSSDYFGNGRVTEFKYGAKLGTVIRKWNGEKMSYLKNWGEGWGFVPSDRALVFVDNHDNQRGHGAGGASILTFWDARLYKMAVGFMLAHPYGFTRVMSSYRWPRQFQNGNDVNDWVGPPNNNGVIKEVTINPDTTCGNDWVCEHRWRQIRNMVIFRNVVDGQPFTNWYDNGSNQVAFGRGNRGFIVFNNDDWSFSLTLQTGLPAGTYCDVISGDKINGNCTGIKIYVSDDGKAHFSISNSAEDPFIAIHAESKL
Briefly: HPLC microfractionation with post-column pancreatic α-amylase inhibition (dyed starch). The conditions noted are these: HPLC zone of R. acicularis leaf extract (July sample), 30 s fractions. How it is done:
The probe of the extract was separated by HPLC, and fractions were eluted every 30 sec, collected, dried and mixed with pancreatic α-amylase. The hydrolytic activity of amylase was studied spectrophotometrically using starch azure as a substrate.
HPLC-PDA-ESI-tQ-MS conditions (Section 3.4) were used to separate the enlarged volume of R. acicularis leaf extract (July sample; 25 μL). The eluates (60 µL) were collected every 30 s by an automated fraction collector, a Shimadzu FRC-10A, and dried under a stream of N2. The eluate residue was dissolved in 50% methanol (50 µL) and added to 50 µL of water, 2.5 mL of Remazol-Brilliant-Blue-R-dyed starch (2% suspension in phosphate buffer, pH of 6.8) and 500 μL α-amylase from the human pancreas (0.4 U/mL), incubated for 50 min (37 °C) and the absorbance was measured at 620 nm. […] The value of 100% destruction of Remazol-Brilliant-Blue-R-dyed starch (or 0% content of intact starch compound) was measured for the eluate with a retention time of 0.5–1.0 min.

The target of test [3] is T3, porcine pancreatic amylase (Sus scrofa, UniProt P00690).
T3 construct: α-amylase from porcine pancreas; purchased Sigma-Aldrich Cat. No. 6255; host or cells: porcine pancreas (tissue-derived)
T3 sequence (P00690 16-511): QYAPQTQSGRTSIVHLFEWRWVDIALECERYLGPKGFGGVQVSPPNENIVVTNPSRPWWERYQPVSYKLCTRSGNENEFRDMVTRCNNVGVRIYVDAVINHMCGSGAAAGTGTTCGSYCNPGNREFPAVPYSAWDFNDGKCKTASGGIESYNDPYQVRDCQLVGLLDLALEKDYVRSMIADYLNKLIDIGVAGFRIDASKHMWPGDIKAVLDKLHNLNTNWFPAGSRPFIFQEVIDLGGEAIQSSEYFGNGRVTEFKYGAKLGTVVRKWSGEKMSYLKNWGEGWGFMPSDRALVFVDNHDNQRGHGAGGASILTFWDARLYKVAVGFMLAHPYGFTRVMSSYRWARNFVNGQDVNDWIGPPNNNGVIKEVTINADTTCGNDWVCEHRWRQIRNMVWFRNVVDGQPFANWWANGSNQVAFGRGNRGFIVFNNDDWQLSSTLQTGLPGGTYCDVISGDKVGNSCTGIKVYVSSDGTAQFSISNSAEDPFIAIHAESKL
Briefly: Simulated gastrointestinal digestion of artificial substrate mixture, amylase activity (p-nitrophenol marker, HPLC-DAD). The conditions noted are these: 1000 μg/mL; control = 100% of enzyme activity. An excerpt:
To study the inhibitory potential of R. acicularis extracts on the digestive enzymes, we used the standardized static, simulated gastrointestinal digestion method of Minekus et al., based on physiologically relevant conditions of digestion. In brief, the artificial substrate mixture, including ethylidene-p-nitrophenyl-α-D-maltoheptaoside (as a carbohydrate model), Nα-benzoyl-L-arginine-7-amino-4-methylcoumarin hydrochloride (as a protein model) and 4-methylumbelliferyl heptanoate (as a lipid model), was digested with extracts of R. acicularis leaves, flowers, roots and fruits (in doses of 100 μg/mL and 1000 μg/mL) by gastric and intestinal enzymatic and electrolyte mixtures (or juices). […] In a final step, concentrations of specific markers, such as p-nitrophenol, 7-amino-4-methylcoumarin and 4-methylumbelliferone, released from an artificial nutrient mixture, were analyzed by an HPLC-DAD assay. […]
For simulation, the known standardized static gastrointestinal digestion method of Minekus et al. was used with no variation. […] The supernatant was analyzed using an HPLC-DAD assay (Section 3.7) to quantify the level of markers as p-nitrophenol, 7-amino-4-methylcoumarin and 4-methylumbelliferone formed from ethylidene-p-nitrophenyl-α-D-maltoheptaoside, Nα-benzoyl-L-arginine- 7-amino-4-methylcoumarin hydrochloride and 4-methylumbelliferyl heptanoate, respectively. […]

Regarding `CCCCCCCCCCC[C@@H](C[C@@H]1OC(=O)[C@H]1CCCCCC)OC(=O)[C@H](CC(C)C)NC=O` [orlistat, reference compound], in test [1], the “Lipase activity (percentage of initial) after simulated gastrointestinal digestion” value was 38%.
For `O=C(OC[C@H]1O[C@@H](OC(=O)c2cc(O)c(O)c(O)c2)[C@H](OC(=O)c2cc(O)c(O)c(O)c2)[C@@H](OC(=O)c2cc(O)c(O)c(O)c2)[C@@H]1O)c1cc(O)c(O)c(O)c1` [1,2,3,6-tetra-O-galloyl glucose, 1,2,3,6-Tetra-O-galloyl glucose], the “Pancreatic-α-amylase-inhibiting activity of HPLC zone (in words)” value (shortened to “Pancreatic-α-amylase-inhibiting activity”) in test [2] is “medium activity”.
As for `C[C@H]1O[C@H](O[C@H]2[C@H](O)[C@@H](O)[C@@H](O[C@H]3[C@H](O)[C@@H](O)C(O)O[C@@H]3CO)O[C@@H]2CO)[C@H](O)[C@@H](O)[C@@H]1N[C@H]1C=C(CO)[C@@H](O)[C@H](O)[C@H]1O` (some centres unmarked) [Acarbose], in test [3], the “Amylase activity (percentage of initial) after simulated gastrointestinal digestion” value is given as 55%.
Consider `O=C(O)[C@H]1O[C@@H](Oc2c(-c3ccc(O)c(O)c3)oc3cc(O)cc(O)c3c2=O)[C@H](O)[C@@H](O)[C@@H]1O` [miquelianin, Quercetin-3-O-glucuronide], for which the “Pancreatic-α-amylase-inhibiting activity” value in test [2] was “medium activity”.
`O=C(OC1O[C@@H]2COC(=O)c3cc(O)c(O)c(O)c3-c3c(cc(O)c(O)c3O)C(=O)O[C@H]2[C@H](OC(=O)c2cc(O)c(O)c(O)c2)[C@H]1OC(=O)c1cc(O)c(O)c(O)c1)c1cc(O)c(O)c(O)c1` (some centres unmarked) [tellimagrandin II, Tellimagrandin II1]: in test [2], the “Pancreatic-α-amylase-inhibiting activity” value is on record as “medium activity”.

The record behind these values is paper PMC8622385, “Metabolites of Prickly Rose: Chemodiversity and Digestive-Enzyme-Inhibiting Potential of Rosa acicularis and the Main Ellagitannin Rugosin D” (Plants, 2021).
